We go through 1 compound from patent US20260055065A1, “PYRIDAZINONE COMPOUNDS WHICH MODULATE MUTANT PROTEINS FOR TREATING RESPIRATORY DISEASES” (The Hospital for Sick Children, priority 2022, published 2026).

Format in all cases: cell-based
One assay addresses T1, F508del-CFTR (Homo sapiens, UniProt P13569, DEL508-508).
T1 construct: F508del-CFTR was endogenously expressed in CFBE41o^− cells; endogenous in cells; host or cells: CFBE41o-
Briefly: Dose response, potentiation of forskolin-activated F508del-CFTR chloride channel activity in CFBE41o- cells (fluorescence membrane potential assay). As to conditions: low temperature (27 degrees Celsius) correction, read-out: potency in potentiating cyclic AMP dependent F508del-CFTR chloride channel activity. The method, then:
In these studies, F508del-CFTR was endogenously expressed in CFBE41o^− cells and it's trafficking defect corrected by low temperature (27 degrees Celsius) incubation. The fold increase in cyclic AMP dependent F508del-CFTR mediated chloride channel activity induced by potentiator treatment was determined using the fluorescence-based, membrane potential difference assay previously described.

In a further assay the target is T2, deltaF508 CFTR (Homo sapiens, UniProt P13569, DEL508-508).
T2 construct: host or cells: CFBE (cystic fibrosis bronchial-derived cell line)
T2 sequence (P13569 with tags, fused parts or gaps DEL508-508): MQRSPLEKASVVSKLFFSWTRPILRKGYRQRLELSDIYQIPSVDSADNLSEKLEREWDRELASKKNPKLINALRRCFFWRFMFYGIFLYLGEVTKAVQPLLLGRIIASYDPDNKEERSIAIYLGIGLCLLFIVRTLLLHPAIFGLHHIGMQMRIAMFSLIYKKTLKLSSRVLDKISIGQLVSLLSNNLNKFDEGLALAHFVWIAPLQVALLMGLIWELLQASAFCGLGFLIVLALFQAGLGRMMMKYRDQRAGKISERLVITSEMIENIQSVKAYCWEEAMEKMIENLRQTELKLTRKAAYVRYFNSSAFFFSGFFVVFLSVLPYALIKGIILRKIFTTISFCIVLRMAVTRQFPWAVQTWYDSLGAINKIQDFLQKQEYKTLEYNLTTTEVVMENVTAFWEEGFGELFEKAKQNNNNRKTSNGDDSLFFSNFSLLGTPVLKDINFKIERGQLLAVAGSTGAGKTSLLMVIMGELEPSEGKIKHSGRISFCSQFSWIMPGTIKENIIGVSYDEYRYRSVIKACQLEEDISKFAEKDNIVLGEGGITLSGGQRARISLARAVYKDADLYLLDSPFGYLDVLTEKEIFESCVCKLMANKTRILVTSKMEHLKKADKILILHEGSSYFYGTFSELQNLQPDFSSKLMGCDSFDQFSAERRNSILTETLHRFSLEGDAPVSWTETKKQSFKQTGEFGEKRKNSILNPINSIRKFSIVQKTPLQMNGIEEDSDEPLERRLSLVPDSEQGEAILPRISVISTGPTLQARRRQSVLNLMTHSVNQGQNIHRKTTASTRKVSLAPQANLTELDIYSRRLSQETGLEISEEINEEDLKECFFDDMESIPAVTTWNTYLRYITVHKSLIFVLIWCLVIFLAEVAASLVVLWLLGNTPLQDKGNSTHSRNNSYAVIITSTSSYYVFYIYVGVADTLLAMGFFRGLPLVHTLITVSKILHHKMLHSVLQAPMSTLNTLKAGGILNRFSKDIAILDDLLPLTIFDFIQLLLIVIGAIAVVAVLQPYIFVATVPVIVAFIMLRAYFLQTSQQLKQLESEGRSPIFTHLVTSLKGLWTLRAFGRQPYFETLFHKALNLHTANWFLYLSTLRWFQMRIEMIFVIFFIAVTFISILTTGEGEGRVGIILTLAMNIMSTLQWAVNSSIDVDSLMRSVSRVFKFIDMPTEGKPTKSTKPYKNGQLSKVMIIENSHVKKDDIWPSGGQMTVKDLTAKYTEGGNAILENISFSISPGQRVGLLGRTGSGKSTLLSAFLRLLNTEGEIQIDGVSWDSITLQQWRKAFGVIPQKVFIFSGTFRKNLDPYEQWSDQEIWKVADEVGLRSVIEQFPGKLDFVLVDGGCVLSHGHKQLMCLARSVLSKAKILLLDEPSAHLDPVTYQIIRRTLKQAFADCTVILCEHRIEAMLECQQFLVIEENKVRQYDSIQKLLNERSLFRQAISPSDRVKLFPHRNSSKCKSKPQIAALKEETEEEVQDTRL
Briefly: CFBE potentiator assay (FLIPR membrane potential, temperature-rescued). As to conditions: CFBE cells, 3 micromolar forskolin; read-out: CFBE potentiator assay pot. pEC50 (converted). The protocol:
Cell culture: HEK293 cells stably expressing human deltaF508 CFTR were cultured in DMEM/F12 medium containing 10% fetal bovine serum (FBS) and 600 micrograms/mL geneticin. For functional CFTR assays, cryo-preserved cells were quickly thawed in a 37° C. water bath, diluted with warm DMEM/F12 medium containing 10% FBS, spun down at 300×g for 5 mins and resuspended in the same medium at a density of 300,000 cells/mL. A cystic fibrosis bronchial-derived cell line complemented with a 4.7 Kb deltaF508 CFTR cDNA (“CFBE”) was obtained from Dr. Dieter Gruenert under a license from UCSF. These cells were cultured in MEM with Earle's salt (Invitrogen)supplemented with 10% fetal bovine serum (Invitrogen) and 300 micrograms/mL hygromycin (Millipore). CFBE cells were grown on flasks coated with a fibronectin solution containing LHC basal medium (Invitrogen), 0.001% bovine serum albumin (Sigma), 1% v/v Vitrogen 100 (BD Bioscience) and 10 micrograms/mL human fibronectin (Life Technologies). All cells were grown at 37° C. and 5% CO2 unless specified for an assay.
CFBE potentiator assay: CFBE cells were dissociated for 10 mins at 37° C. with Hank's balanced salt solution containing 0.6 mM EDTA and 10% of a 0.25% Trypsin/EDTA solution (all from Life Technologies). An equal amount of CFBE cell growth medium (see Cell culture above) was then added to the flasks and cells were spun at 500×g for 10 mins. Cells were re-suspended in cell medium at a density of 150,000 cells/mL and plated in 384-well black, poly-D-Lysine-coated plates (7,500 cells/well). Cells were then grown at 37° C., 5% CO2 for a total of 6-8 days to allow differentiation. Cell medium was changed every 2-3 days. The day before each experiment, culture medium was removed, fresh culture medium was added and cells were placed at 30° C., 5% CO2 for 18-24 hrs to allow temperature rescue of delF508 CFTR. Potentiation activity was measured as described above for HEK cells except cells were stained for exactly 60 mins, compounds (or DMSO for negative control) were mixed with assay buffer containing 3 micromolar forskolin, and the positive control wells had assay buffer containing 3 micromolar forskolin and 9 micromolar VX-770 (Selleckchem).
Data analysis: CFTR activity was defined as maximum fluorescence signal after addition minus baseline fluorescence. All data were normalized to each plate's positive and negative controls and expressed as percent responses. Concentration response curves were analyzed by fitting the data to a 4-parameter logistic equation in Microcal's Origin or IDBS' Activity Base software.

Assay [1] has as its system primary differentiated human bronchial epithelial cultures. The assay is described as follows: Bead tracking assay of mucociliary movement, primary bronchial epithelial cultures exposed to cigarette smoke extract. The note with it: for mucostasis / bead velocity in CSE-treated cultures: CSE 2%, compound 1 μM for 24 hours, forskolin 10 μM. The method, then:
Compound 11 was tested in an in-vitro model of COPD. In this model, primary differentiated human bronchial epithelial cultures were exposed to cigarette smoke extract (4,5). Exposure to cigarette smoke extract (CSE) led to mucostasis and slowed mucociliary movement (FIG. 1(A) and (B)). […] Changes in mucociliary movement were determined as in our previous publication (7), i.e., by tracking the speed of fluorescent beads added to the surface of the airway cultures. The relative rescue effect of Compound 11 compared favourably relative to the competitor, the FDA approved CFTR potentiator marketed as Ivacaftor (VX-770).
Mature bronchial epithelial cultures, seeded on 24-well transwell inserts, derived from non-smoker donors of variable ages were received from the University of Iowa and cultured at air-liquid interface (ALI) using UltraG medium. A total of 6 inserts per donor were cultured, and all inserts from a single donor were selected to receive chronic drug and toxin treatment. Ahead of chronic treatment, cultures were subject to mucomist to reduce the volume and viscosity of the mucous layer ahead of imaging. Cultures were first washed twice with 200 uL HBSS (Wisent) applied apically to the transwell, each wash for 10 minutes at 37 degrees and 5% CO2. Cells were then incubated with 10 μM N-acetyl-cysteine (source?) dissolved in HBSS (Wisent) for 30 minutes, followed by a final HBSS wash as described previously. The toxin treatment consisted of either cigarette smoke extract (CSE) prepared in 100% DMSO (University of Alabama at Birmingham), dissolved at a concentration of 2% (v/v) in UltraG medium, with an equivalent concentration of DMSO alone serving as a control. The chronic drug treatment was co-applied with the toxin treatment, which included either VX-770 (Vertex) or SK-POT, aka Compound 11 (both prepared in 100% DMSO) dissolved in UltraG medium at a final concentration of 1 μm. There were a total of 6 chronic treatments, with each of the 6 inserts per donor receiving a different chronic treatment. Bronchial epithelia were incubated with the chronic treatment, applied apically, for 24 hours at 37 degrees C. and 5% CO2. After 24 hours, green fluorescent microspheres (brand?) dissolved in HBSS at a concentration of 0.05% (v/v) were applied apically; cultures were incubated with the microspheres for 45 minutes. The toxin and potentiator treatments were carried forth into the microsphere solution.
Inserts were then imaged at room temperature by epifluorescence microscopy (Zeiss or Olympus). The basic replicate of the assay consists of a 5-second video captured in the green channel and 40-60 frames per second; Z-position was adjusted ahead of each video to ensure beads in the airway surface liquid stratum immediately above the cilia were being captured. 5 videos were captured per insert/conditions, representing the centre and 4 corners of the insert. 2 sets of 5 videos were captured per insert/condition: one at baseline, and one 20 minutes following CFTR stimulation by forskolin at a concentration of 10 μM. Inserts were incubated at room temperature after forskolin addition.
Videos were captured using Volocity software and exported as one TIF file per frame. Frames were then re-compiled into complete videos using Arivis 4D software. Using an algorithm as previously described in Wu et al. 2017, microspheres were highlighted by adjusting two parameters: fluorescence intensity and diameter. […]

“Also recorded” adds a separate entry of the source.

T1 sequence (P13569 with tags, fused parts or gaps DEL508-508): as above

Regarding `CC(C)(C)c1ccc(-n2nc(-c3ccc(F)cc3)c(N3CCCCC3)c(N)c2=O)cc1O` [Compound 11, 4-amino-2-(4-(tert-butyl)-3-hydroxyphenyl)-6-(4-fluorophenyl)-5-(piperidin-1-yl)pyridazin-3(2H)-one], the EC50 at F508del-CFTR was 5 nM; on deltaF508 CFTR it was 10 nM. Moreover, the “mucostasis / bead velocity in CSE-treated cultures” value in assay [1] is listed as “prevented the mucostasis induced by cigarette smoke extract; also recorded: rescued to control values”; in assay [1] (listed as SK-POT), “significant increase in bead velocity”. For the same compound, the “bead velocity under control conditions” value in assay [1] (no CSE, compound added with vehicle for 24 hours) was “Neither VX-770 nor Compound 11 had any impact on bead velocity”.
